Measured values published in patent US11814376B2, “Hepatitis b core protein modulators” (Assembly Biosciences, Inc., priority 2015, dated 2023).
Where two headings read alike, the source gives them in different places.

Experiments:
[1] = test system: AD38 cells; assay: Viability of AD38 cells (Promega CellTiter-Glo); format: cell-based; details: 10 μM compound, 6 days, CellTiter-Glo luminescence normalized to DMSO control (100%)
Summary of the method: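 AD38 cells were seeded at 50,000/well on collagen-coated plates and treated with compound added as a 10× solution in 10% DMSO for 6 days at 37° C. Viability was measured by CellTiter-Glo luminescence in tetracycline-free medium with 2% FBS and 1% DMSO, and expressed as percent of DMSO control.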

[2] = test system: HBV viral load in AD38 cells; assay: Viral load production in AD38 cells, quantitative PCR of the core sequence in supernatant; format: cell-based; details: Hepatitis B virus, 144 h, read-out: AD38 Viral Load (%) (VL with cmpd/VL in DMSO control) at 10 μM
[3] = 10 μM compound, 6 days at 37° C., supernatant qPCR, relative to DMSO control

Compound	AD38 Viability Normalized Result (cmpd/DMSO %) at 10 μM [1] [%]	activity at 10 µM [2, 3] [%]	activity at 10 µM [2] [%]
Cc1c(C(=O)NCc2cnc(-c3ccc(C#N)cc3)s2)cc(Br)c2c1NC(=O)c1ccccc1S2 [compound 1915]	100	15.7	–
NC(=O)c1ccc(-c2ncc(CNC(=O)c3ccc4c(c3)NC(=O)c3ccccc3S4(=O)=O)s2)cc1 [compound 1764, N-((2-(4-carbamoylphenyl)thiazol-5-yl)methyl)-11-oxo-10, 11 dihydrodibenzo [b, f] [1, 4] thiazepine-8-carboxamide 5,5-dioxide]	107	1.1	–
Nc1ncc(-c2ncc(CNC(=O)c3ccc4c(c3)NC(=O)c3ccccc3S4(=O)=O)s2)cn1 [compound 1673]	105	3.2	–
Cl.NCCCOc1ccc(-c2ncc(CNC(=O)c3ccc4c(c3)NC(=O)c3ccccc3S4(=O)=O)s2)cc1 [compound 1988, N-((2-(4-(3-aminopropoxy)phenyl)thiazol-5-yl)methyl)-11-oxo-10, 11-dihydrodibenzo [b, f] [1, 4] thiazepine-8-carboxamide 5,5-dioxide hydrochloride]	103	1.3	–
COc1ccc(-c2ncc(CNC(=O)c3ccc4c(c3)NC(=O)c3ccccc3O4)s2)cn1 [compound 1705, N-((2-(6-methoxypyridin-3-yl)thiazol-5-yl)methyl)-11-oxo-10, 11-dihydrodibenzo [b, f] [1, 4] oxazepine-8-carboxamide]	93	3.7	–
Cc1cc2c(cc1C(=O)NCc1cncs1)NC(=O)c1ccccc1S2 [compound 1496]	57	9.6	–
CN(C)c1ccc(-c2ncc(CNC(=O)c3ccc4c(c3)NC(=O)c3ccccc3O4)s2)cn1 [compound 1708]	90	0.8	–
Cc1c(C(=O)NCc2cnc(-c3ccc(F)cn3)s2)ccc2c1NC(=O)c1ccccc1S2(=O)=O [compound 11150]	100	0.4	–
O=C(NCc1cnc(-c2ccc3cnccc3c2)s1)c1ccc2c(c1)NC(=O)c1ccccc1S2(=O)=O [compound 1820]	105	3.2	–
O=C(NCc1cnc(-c2ccc(O)cc2)s1)c1ccc2c(c1)NC(=O)c1cccc(F)c1S2 [compound 1753]	97	2.4	–
O=C(NCc1cnc(-c2ccc(OCCC[N+]34CCC(CC3)CC4)cc2)s1)c1ccc2c(c1)NC(=O)c1ccccc1S2(=O)=O.[Br-] [compound 11108, 1-(3-(4-(5-((5,5-dioxido-11-oxo-10, 11-dihydrodibenzo [b, f] [1, 4]thiazepine-8-carboxamido)methyl)thiazol-2-yl)phenoxy)propyl) quinuclidin-1-ium bromide]	95	–	11.2
O=C(NCc1cnc(OCCOC2CCCCO2)s1)c1ccc2c(c1)NC(=O)c1ccccc1O2 (stereo not drawn) [1613-A, 11-oxo-N-((2-(2-((tetrahydro-2H-pyran-2-yl)oxy)ethoxy)thiazol-5-yl)methyl)-10, 11-dihydrodibenzo [b, f] [1, 4] oxazepine-8-carboxamide]	95	11.5	–
CN(C)CCCSc1ccc(-c2ncc(CNC(=O)c3ccc4c(c3)NC(=O)c3ccccc3S4(=O)=O)s2)cc1 [compound 11006, N-((2-(4-((3-(dimethylamino)propyl)thio)phenyl)thiazol-5-yl)methyl)-11-oxo-10, 11-dihydrodibenzo [b, f] [1, 4] thiazepine-8-carboxamide 5,5-dioxide]	97	1.3	–
Cc1ncc(CNC(=O)c2ccc3c(c2)NC(=O)c2ccc(Cl)cc2S3)s1 [compound 1544]	88	2.6	–
CNC(=O)c1ccc(-c2ncc(CNC(=O)c3ccc4c(c3)NC(=O)c3ccccc3S4(=O)=O)s2)cc1 [compound 1943]	98	1.9	–
CN(C)c1ccc(-c2ncc(CNC(=O)c3ccc4c(c3)NC(=O)c3ccccc3S4(=O)=O)s2)cn1 [compound 1674]	121	0.3	–
CCN1c2ccc(C(=O)NCc3cnc(-c4ccc(O)cc4)s3)cc2NC(=O)c2ccccc21 [compound 1751]	18	2.8	–
O=C(NCc1cnc(-c2ccc(O)cc2)s1)c1ccc2c(c1)NC(=O)c1ccccc1S2 [compound 1605]	96	0.7	–
N#Cc1ncc(CNC(=O)c2ccc3c(c2)NC(=O)c2ccccc2S3)s1 [compound 1627]	63	6	–
Cl.NCCCCc1ccc(-c2ncc(CNC(=O)c3ccc4c(c3)NC(=O)c3ccccc3S4(=O)=O)s2)cc1 [compound 11004, N-((2-(4-(4-aminobutyl)phenyl)thiazol-5-yl)methyl)-11-oxo-10, 11-dihydrodibenzo [b, f] [1, 4] thiazepine-8-carboxamide 5,5-dioxide hydrochloride salt]	94	5.5	–
O=C(NCc1cnc(-c2ccccc2CO)s1)c1ccc2c(c1)NC(=O)c1ccccc1S2(=O)=O [compound 1838]	113	1.4	–
O=C(NCc1cnc(-c2ccc(O[C@H]3CCNC3)cc2)s1)c1ccc2c(c1)NC(=O)c1ccccc1S2(=O)=O.O=C(O)C(F)(F)F [compound 11028, (S)-11-oxo-N-((2-(4-(pyrrolidin-3-yloxy)phenyl)thiazol-5-yl)methyl)-10, 11-dihydrodibenzo [b, f] [1, 4] thiazepine-8-carboxamide 5,5-dioxide TFA salt]	92	5.2	–
CC(C)(C)NCCCCc1ccc(-c2ncc(CNC(=O)c3ccc4c(c3)NC(=O)c3ccccc3S4(=O)=O)s2)cc1 [compound 11054]	102	14.1	–
CC(C)(C)NCCCOc1ccc(-c2ncc(CNC(=O)c3ccc4c(c3)NC(=O)c3ccccc3S4(=O)=O)s2)cc1 [compound 1990, N-((2-(4-(3-(tert-butylamino)propoxy)phenyl)thiazol-5-yl)methyl)-11-oxo-10, 11-dihydrodibenzo [b, f] [1, 4] thiazepine-8-carboxamide 5,5-dioxide]	98	4.1	–
Cc1ncc(CNC(=O)c2ccc3c(c2C)NC(=O)c2ccccc2S3)s1 [compound 1535]	84	0.8	–
N#Cc1ccc(-c2ncc(CNC(=O)c3ccc4c(c3)NC(=O)c3ccccc3S4(=O)=O)s2)cc1 [1654-A, N-((2-(4-cyanophenyl)thiazol-5-yl)methyl)-11-oxo-10, 11-dihydrodibenzo [b, f] [1, 4] thiazepine-8-carboxamide 5,5-dioxide]	68	2.6	–
CCc1cc2c(cc1C(=O)NCc1cnc(-c3ccc(C#N)cc3F)s1)NC(=O)c1ccccc1S2(=O)=O [compound 11042]	109	0.8	–
